Patent US10800741B2 (ANCUREALL PHARMACEUTICAL (SHANGHAI) CO., LTD., priority 2017, dated 2020)
Like-named read-outs stand apart in the source and are kept apart here.

Key:
Assay in all cases: KINOMEscan in vitro binding to 468 labeled protein kinases
protein kinases [1] = target: T1, protein kinases (Homo sapiens, UniProt P21802); details: FGFR2, read-out: Test compound/solvent control (%)
T1 construct: purchased Discovery X company (USA), KINOMEscan screening platform
Procedure, shortened: (§1)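 Duplicate in vitro binding reactions at 1 nM, 10 nM and 1000 nM compound against a panel of 468 labelled protein kinases (KINOMEscan). Binding expressed relative to solvent control as a percentage, stronger affinity giving a lower value.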

protein kinases [2] = target: T2, protein kinases (Homo sapiens, UniProt P00533, L861Q); details: EGFR(L861Q)
T2 construct: purchased Discovery X company (USA), KINOMEscan screening platform
T2 sequence (P00533 25-1210 L861Q): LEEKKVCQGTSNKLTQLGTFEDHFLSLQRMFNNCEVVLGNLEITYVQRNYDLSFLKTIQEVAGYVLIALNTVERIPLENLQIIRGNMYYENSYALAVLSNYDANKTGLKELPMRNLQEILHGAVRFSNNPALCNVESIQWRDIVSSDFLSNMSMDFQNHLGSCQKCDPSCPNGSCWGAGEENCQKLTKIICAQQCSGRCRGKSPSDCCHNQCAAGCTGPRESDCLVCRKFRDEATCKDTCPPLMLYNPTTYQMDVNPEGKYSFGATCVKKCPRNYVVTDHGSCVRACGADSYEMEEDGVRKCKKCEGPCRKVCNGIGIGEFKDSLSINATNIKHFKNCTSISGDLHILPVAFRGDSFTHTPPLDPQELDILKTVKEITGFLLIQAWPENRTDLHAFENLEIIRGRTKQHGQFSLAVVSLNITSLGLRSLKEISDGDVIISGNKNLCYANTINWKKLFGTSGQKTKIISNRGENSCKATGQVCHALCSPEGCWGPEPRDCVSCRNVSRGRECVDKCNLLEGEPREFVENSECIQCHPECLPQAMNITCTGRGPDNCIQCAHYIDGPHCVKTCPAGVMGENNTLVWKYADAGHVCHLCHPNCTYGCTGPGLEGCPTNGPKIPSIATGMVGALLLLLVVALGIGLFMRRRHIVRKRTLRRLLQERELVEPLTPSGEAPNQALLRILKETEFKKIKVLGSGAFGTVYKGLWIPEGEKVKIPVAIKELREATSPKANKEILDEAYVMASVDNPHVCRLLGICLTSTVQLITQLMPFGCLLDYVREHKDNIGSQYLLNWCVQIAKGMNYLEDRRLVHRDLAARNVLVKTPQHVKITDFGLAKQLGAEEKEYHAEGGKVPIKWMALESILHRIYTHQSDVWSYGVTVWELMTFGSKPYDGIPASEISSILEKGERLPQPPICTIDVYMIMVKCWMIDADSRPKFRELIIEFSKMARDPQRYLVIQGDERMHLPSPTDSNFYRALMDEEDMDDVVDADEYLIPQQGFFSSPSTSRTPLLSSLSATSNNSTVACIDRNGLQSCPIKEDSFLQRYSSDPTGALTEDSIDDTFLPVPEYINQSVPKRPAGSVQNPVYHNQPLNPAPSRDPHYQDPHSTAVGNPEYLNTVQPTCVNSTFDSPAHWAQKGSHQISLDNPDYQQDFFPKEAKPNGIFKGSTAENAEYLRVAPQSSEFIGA
Procedure, shortened: as §1

protein kinases [3] = target: T3, protein kinases (Homo sapiens, UniProt P10721, V559D); details: KIT(V559D), read-out: Test compound/solvent control (%)
T3 construct: purchased Discovery X company (USA), KINOMEscan screening platform
T3 sequence (P10721 26-976 V559D): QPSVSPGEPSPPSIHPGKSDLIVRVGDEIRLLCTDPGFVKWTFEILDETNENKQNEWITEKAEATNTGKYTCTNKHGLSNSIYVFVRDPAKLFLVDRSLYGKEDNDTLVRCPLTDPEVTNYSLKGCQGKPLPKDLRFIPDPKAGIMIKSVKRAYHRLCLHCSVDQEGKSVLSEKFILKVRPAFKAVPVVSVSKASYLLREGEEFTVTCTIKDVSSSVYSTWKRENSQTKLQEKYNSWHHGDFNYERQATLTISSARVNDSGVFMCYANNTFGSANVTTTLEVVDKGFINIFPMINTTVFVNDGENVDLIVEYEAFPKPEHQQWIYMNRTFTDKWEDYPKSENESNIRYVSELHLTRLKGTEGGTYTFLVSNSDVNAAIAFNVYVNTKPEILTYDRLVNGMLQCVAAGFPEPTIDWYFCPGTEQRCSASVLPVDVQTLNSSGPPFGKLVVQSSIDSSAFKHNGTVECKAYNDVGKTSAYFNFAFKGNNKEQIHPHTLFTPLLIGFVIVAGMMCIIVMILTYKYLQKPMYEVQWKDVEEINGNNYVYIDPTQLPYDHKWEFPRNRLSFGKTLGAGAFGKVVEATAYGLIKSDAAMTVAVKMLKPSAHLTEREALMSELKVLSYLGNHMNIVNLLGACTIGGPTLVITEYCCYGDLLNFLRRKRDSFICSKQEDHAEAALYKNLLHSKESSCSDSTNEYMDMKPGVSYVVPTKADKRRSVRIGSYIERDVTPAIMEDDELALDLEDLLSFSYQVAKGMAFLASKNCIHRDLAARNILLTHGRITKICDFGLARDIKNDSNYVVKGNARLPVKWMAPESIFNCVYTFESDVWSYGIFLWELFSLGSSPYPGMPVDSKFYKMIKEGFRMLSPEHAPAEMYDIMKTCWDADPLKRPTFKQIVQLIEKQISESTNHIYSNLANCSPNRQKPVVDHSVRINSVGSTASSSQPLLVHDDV
Procedure, shortened: as §1

protein kinases [4] = target: T4, protein kinases (Homo sapiens, UniProt P00519); details: read-out: Test compound/solvent control (%); for remaining binding at 0.001 µM: 1 nM; for remaining binding at 0.01 µM: 10 nM; for remaining binding at 1 µM: 1000 nM
T4 construct: purchased Discovery X company (USA), KINOMEscan screening platform
T4 sequence (P00519 whole entry): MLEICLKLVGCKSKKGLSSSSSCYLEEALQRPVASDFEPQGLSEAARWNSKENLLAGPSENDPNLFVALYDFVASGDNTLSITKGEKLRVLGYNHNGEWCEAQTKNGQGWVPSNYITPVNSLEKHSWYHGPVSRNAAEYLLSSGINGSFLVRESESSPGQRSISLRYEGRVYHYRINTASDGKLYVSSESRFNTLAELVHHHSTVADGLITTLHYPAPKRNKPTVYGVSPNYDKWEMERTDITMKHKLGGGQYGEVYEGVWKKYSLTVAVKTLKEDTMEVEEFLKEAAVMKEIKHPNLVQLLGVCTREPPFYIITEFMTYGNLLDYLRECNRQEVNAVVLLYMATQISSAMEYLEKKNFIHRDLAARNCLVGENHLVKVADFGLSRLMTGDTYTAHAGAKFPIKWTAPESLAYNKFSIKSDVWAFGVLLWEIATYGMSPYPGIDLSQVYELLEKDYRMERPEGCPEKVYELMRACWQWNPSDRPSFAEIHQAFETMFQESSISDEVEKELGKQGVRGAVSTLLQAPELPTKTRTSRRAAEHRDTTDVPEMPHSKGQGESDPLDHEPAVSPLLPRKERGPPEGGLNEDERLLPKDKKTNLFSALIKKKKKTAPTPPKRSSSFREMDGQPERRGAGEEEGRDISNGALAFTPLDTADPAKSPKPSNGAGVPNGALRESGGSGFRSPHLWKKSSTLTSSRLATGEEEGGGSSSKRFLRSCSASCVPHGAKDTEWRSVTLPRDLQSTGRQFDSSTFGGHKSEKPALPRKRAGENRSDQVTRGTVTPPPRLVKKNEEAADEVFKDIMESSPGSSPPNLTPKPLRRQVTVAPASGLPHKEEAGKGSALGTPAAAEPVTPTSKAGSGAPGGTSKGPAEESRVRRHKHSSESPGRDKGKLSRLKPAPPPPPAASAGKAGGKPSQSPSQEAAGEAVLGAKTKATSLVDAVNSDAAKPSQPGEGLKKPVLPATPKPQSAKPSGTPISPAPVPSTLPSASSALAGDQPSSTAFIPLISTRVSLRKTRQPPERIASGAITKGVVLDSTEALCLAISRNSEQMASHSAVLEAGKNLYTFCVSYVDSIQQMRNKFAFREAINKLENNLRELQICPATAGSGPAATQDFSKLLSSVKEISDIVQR
Procedure, shortened: as §1

protein kinases [5] = target: T5, protein kinases (Homo sapiens, UniProt P00533, G719S); details: EGFR(G719S)
T5 construct: purchased Discovery X company (USA), KINOMEscan screening platform
Procedure, shortened: as §1

protein kinases [6] = target: T6, protein kinases (Homo sapiens, UniProt P36888, R834Q); details: FLT3(R834Q), read-out: Test compound/solvent control (%)
T6 construct: purchased Discovery X company (USA), KINOMEscan screening platform
T6 sequence (P36888 27-993 R834Q): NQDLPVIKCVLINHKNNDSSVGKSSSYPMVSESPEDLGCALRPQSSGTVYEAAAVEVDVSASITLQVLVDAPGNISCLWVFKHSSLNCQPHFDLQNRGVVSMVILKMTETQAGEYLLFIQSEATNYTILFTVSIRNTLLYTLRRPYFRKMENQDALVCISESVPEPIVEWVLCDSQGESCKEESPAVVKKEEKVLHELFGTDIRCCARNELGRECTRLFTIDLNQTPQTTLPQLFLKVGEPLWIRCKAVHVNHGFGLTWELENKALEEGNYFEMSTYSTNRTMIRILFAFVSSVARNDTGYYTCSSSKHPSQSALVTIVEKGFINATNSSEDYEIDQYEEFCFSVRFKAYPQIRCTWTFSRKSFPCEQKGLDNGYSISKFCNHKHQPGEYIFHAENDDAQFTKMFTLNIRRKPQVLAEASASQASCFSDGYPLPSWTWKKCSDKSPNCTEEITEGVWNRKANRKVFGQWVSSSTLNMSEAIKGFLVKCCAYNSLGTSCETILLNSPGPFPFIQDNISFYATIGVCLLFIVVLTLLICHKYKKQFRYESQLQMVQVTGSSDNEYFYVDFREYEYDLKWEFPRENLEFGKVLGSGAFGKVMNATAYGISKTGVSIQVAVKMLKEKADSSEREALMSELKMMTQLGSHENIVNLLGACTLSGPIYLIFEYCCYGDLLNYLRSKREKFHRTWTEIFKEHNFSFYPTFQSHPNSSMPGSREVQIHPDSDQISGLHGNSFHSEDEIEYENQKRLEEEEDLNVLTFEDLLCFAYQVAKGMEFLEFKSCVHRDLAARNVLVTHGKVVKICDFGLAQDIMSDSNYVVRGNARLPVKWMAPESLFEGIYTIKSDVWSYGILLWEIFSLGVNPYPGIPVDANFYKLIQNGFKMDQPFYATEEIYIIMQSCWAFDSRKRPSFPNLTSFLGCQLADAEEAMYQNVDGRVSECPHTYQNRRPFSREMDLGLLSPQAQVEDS
Procedure, shortened: as §1

protein kinases [7] = target: T7, protein kinases (Homo sapiens, UniProt P35590); details: TIE1, read-out: Test compound/solvent control (%)
T7 construct: purchased Discovery X company (USA), KINOMEscan screening platform
Procedure, shortened: as §1

protein kinases [8] = target: T8, protein kinases (Homo sapiens, UniProt Q16288); details: TRKC (NTRK3), read-out: Test compound/solvent control (%)
T8 construct: purchased Discovery X company (USA), KINOMEscan screening platform
T8 sequence (Q16288 32-839): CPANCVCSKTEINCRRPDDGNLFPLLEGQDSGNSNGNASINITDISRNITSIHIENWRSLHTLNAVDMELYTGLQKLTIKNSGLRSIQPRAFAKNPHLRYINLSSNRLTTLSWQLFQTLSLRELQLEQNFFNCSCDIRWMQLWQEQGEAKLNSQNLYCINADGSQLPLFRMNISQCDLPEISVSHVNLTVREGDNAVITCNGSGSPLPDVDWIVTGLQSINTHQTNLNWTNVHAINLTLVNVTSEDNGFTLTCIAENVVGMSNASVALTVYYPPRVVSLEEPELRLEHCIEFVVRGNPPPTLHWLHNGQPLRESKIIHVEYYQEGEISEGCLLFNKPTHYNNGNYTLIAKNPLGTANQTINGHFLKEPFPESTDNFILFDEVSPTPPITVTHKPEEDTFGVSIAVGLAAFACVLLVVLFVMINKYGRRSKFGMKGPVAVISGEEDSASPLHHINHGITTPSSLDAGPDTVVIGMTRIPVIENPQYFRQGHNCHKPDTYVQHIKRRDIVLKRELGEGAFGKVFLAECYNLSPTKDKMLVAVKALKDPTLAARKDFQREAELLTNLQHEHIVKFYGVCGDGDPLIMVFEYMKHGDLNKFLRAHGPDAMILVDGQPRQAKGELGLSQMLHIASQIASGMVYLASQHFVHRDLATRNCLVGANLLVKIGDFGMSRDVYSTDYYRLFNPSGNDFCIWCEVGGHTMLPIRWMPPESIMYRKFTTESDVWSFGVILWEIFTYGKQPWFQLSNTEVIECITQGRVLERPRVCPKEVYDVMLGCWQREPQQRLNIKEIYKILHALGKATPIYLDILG
Procedure, shortened: as §1

T1 sequence (P21802 22-821): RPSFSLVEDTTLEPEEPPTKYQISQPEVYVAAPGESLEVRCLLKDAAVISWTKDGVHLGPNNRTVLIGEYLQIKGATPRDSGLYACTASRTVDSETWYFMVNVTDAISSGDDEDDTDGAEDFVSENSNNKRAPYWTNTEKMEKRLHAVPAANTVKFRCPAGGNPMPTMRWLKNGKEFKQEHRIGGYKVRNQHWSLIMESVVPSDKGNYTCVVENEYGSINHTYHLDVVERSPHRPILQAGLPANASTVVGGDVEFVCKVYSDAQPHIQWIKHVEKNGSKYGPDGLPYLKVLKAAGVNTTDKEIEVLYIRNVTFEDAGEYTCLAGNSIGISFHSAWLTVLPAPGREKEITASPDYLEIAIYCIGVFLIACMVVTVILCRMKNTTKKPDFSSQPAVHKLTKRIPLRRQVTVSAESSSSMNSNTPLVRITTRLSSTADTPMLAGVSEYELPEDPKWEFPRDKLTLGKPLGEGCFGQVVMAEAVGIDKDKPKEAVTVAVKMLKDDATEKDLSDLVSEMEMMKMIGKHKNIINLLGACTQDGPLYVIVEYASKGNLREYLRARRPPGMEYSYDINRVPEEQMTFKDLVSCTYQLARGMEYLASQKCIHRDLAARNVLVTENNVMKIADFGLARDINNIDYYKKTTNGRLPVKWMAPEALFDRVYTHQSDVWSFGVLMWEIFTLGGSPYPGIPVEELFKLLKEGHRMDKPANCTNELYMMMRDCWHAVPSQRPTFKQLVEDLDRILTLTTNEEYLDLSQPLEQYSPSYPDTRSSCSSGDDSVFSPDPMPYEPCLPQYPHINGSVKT

remaining binding at 0.001 µM (protein kinases [1]; 1 nM): 93%
remaining binding at 0.01 µM (protein kinases [1]; 10 nM): 71%
remaining binding at 1 µM (protein kinases [1]; 1000 nM): 0.25%
Test compound/solvent control (%) (protein kinases [2]; 1 nM): 73%
Test compound/solvent control (%) (protein kinases [2]; 10 nM): 9.5%
Test compound/solvent control (%) (protein kinases [2]; 1000 nM): 0%
remaining binding at 0.001 µM (protein kinases [3]; 1 nM): 82%
remaining binding at 0.01 µM (protein kinases [3]; 10 nM): 18%
remaining binding at 1 µM (protein kinases [3]; 1000 nM): 0%
remaining binding at 0.001 µM (protein kinases [4]; ABL1-phosphorylated): 49%
remaining binding at 0.01 µM (protein kinases [4]; ABL1-phosphorylated): 9.9%
remaining binding at 1 µM (protein kinases [4]; ABL1-phosphorylated): 0.1%
remaining binding at 0.001 µM (protein kinases [4]; ABL1-unphosphorylated): 41%
remaining binding at 0.01 µM (protein kinases [4]; ABL1-unphosphorylated): 8.3%
remaining binding at 1 µM (protein kinases [4]; ABL1-unphosphorylated): 0%
Test compound/solvent control (%) (protein kinases [5]; 1 nM): 77%
Test compound/solvent control (%) (protein kinases [5]; 10 nM): 18%
Test compound/solvent control (%) (protein kinases [5]; 1000 nM): 0%
remaining binding at 0.001 µM (protein kinases [6]; 1 nM): 83%
remaining binding at 0.01 µM (protein kinases [6]; 10 nM): 45%
remaining binding at 1 µM (protein kinases [6]; 1000 nM): 0.6%
remaining binding at 0.001 µM (protein kinases [7]; 1 nM): 41%
remaining binding at 0.01 µM (protein kinases [7]; 10 nM): 21%
remaining binding at 1 µM (protein kinases [7]; 1000 nM): 2%
remaining binding at 0.001 µM (protein kinases [8]; 1 nM): 84%
remaining binding at 0.01 µM (protein kinases [8]; 10 nM): 28%
remaining binding at 1 µM (protein kinases [8]; 1000 nM): 0.2%
Structure (SMILES): COCCOc1cc2nccc(Oc3ccc(NC(=O)Nc4cc(C(C)(C)C)n[nH]4)c(Cl)c3)c2cc1NC(C)=O [Compound 66, N-[4-{4-[3-(5-tert-butyl-2H-pyrazol-3-yl)-ureido]-3-chloro-phenoxy}-7-(2-methoxy-ethoxy)-quinolin-6-yl]-acetamide]
